Measurements taken from patent EP4744665A1, “COMBINATION OF POLQ INHIBITOR COMPOUND AND ANTI-CANCER THERAPEUTIC AGENT OR RADIOTHERAPY” (Simcere Zaiming Pharmaceutical Co., Ltd., priority 2023, dated 2025).

What was measured:
KURAMOCHI = test: Combined use with combination drug, matrix study, Bliss Independence model (Cell Titer Glo, 7 days); type: cell-based, human
Protocol: (§1) DLD-1 colorectal adenocarcinoma cells, DLD-1 BRCA2 (-/-) colorectal adenocarcinoma cells, SHP-77 human small cell lung cancer cells, NCI-H82 human small cell lung cancer cells, LNCAP prostate cancer cells, KURAMOCHI human ovarian cancer cells, A2780 human ovarian cancer cells, and NCI-H23 non-small cell lung cancer cells were cultured in a 1640 medium containing 10% fetal bovine serum. SKOV3 human ovarian cancer cells were cultured in a McCoy's 5A (modified) medium containing 10% fetal bovine serum. OVCAR3 ovarian cancer cells were cultured in a 1640 medium containing 20% fetal bovine serum and 10 µg/mL bovine insulin. MDA-MB-436 breast cancer cells (natural BRCA1 mutation) and A549 non-small cell lung cancer cells were cultured in a DMEM medium containing 10% fetal bovine serum. Capan-1 human pancreatic cancer cells (natural BRCA2 mutation) were cultured in an IMDM medium containing 20% fetal bovine serum. The cells were all cultured at 37 °C with 5% CO2. Cells at the logarithmic growth phase were available for the experiment.
(§2) 100 µL of the cell medium was added to rows A and H and columns 1 and 12 of a 96-well cell culture plate. Cultured cells were resuspended (adherent cells were digested with trypsin) and counted to give information on cell density and viability. The dilution ratio of the resuspended cells required for inoculating a fixed number of cells into 80 µL of the medium in each culture well was calculated based on the cell density information. After the resuspended cells were diluted with the corresponding medium, 80 µL of the diluted cells were transferred to columns 2-11 of rows B-G of a 96-well cell culture plate using an Eppendorf multi-channel pipette (60 wells in total for each plate). The cell culture plate was incubated overnight in an incubator at 37 °C with 5% CO2.
(§3) The test compound and the combination compound were dissolved in DMSO to give a 10 mM solution for later use. In the experiment, the compound was further diluted to the corresponding concentration according to the concentration designed in the experiment, and based on this concentration, serial gradient dilution was performed. Matrix study was performed at 8 or 7 dose concentrations of the test compound (the lowest dose concentration was 0, and other specific concentration values were shown in FIG. 1) and 7 or 8 dose concentrations of the combination compound (the lowest dose concentration was 0, and other specific concentration values were shown in FIG. 1). 10 µL of each of the diluted combination compound and test compound was added to the corresponding cell plate well, such that the final concentration of DMSO was 0.25%. The test compound and the cells were incubated in an incubator at 37 °C with 5% CO2 for another 7 days, Cell Titer Glo was added at 50 µL/well, and the luminescence value of each well was read using an Envision microplate reader.
(§4) The luminescence value of the well containing only the cell medium was taken as the background (RLUbackground, corresponding cell survival rate to be 0%), the cell well containing only 0.25% DMSO without the compound was taken as the maximum signal (RLUDMSO, corresponding cell survival rate to be 100%), and the luminescence values of the remaining wells containing cells and compounds at different concentrations were taken as RLUsample. The survival rate of each cell well was calculated as follows: Survival rate (%) = (RLUsample−RLUbackground)/(RLUDMSO−RLUbackground) × 100% [formula]
(§5) The interaction between drugs (synergistic, independent, or antagonistic) was statistically analyzed by the Bliss Independence model using Combenefit software (Bliss, C.I., Bacteriol. Rev., 1956, 20, 243-258). The model assumes that each drug acts independently. The theoretical expected action curve of the combination was calculated from the following equation: Bliss effect = effect A + effect B−effect A × effect B [formula] wherein effect A and effect B are the effects of drugs A and B alone at specific concentrations. […]

NCI-H82 = test: as above; type: cell-based, human; conditions: combination with Etoposide (Topoisomerase II inhibitor)
Protocol: as §1, §2, §3, §4, §5

A549 = test: as above; type: cell-based
Protocol: as §1, §2, §3, §4, §5

DLD-1 BRCA2 (-/-) = test: as above; type: cell-based
Protocol: as §1, §2, §3, §4, §5

DLD1 = test: as above; type: cell-based; conditions: combination with SN38 (Topoisomerase I inhibitor)
Protocol: as §1, §2, §3, §4, §5

MDA-MB-436 = test: as above; type: cell-based
Protocol: as §1, §2, §3, §4, §5

NCIH23 = test: as above; type: cell-based
Protocol: as §1, §2, §3, §4, §5

OVCAR3 = test: as above; type: cell-based
Protocol: as §1, §2, §3, §4, §5

[1] = test system: human breast cancer MDA-MB-436 cells; test: Efficacy of combined use with olaparib in MDA-MB-436 xenograft tumor model; type: in vivo, NOD-SCID mice; conditions: 30 mg/kg QD intragastric in combination with 10 mg/kg olaparib QD
From the text: The anti-tumor activity of the sodium salt of compound I used in combination with olaparib (MCE, 136925) was studied using a MDA-MB-436 subcutaneous tumor model. 24 female NOD-SCID mice (6-7 weeks old, Beijing Vital River Laboratory Animal Technology Co., Ltd.) were subcutaneously inoculated with 1 × 10^7 human breast cancer MDA-MB-436 cells (natural BRCA1 mutation, Nanjing Cobioer). When the tumors grew to 80-120 mm^3, the mice were randomly divided into four groups with six mice per group: a first group treated with vehicle control (QD) by intragastric administration, a second group treated with a 30 mg/kg solution of the sodium salt of compound I (QD) by intragastric administration, a third group treated with a 10 mg/kg olaparib solution (QD) by intragastric administration, and a fourth group treated with a 30 mg/kg solution of the sodium salt of compound I (QD) by intragastric administration and a 10 mg/kg olaparib solution (QD) by intragastric administration. The vehicle of olaparib was a solution containing 10% DMSO, 50% 2-hydroxypropyl-β-cyclodextrin (Aladdin-F2223139, 60% aqueous solution), and 40% water, the vehicle of the sodium salt of compound I was 10% (w/v) Vitamin E TPGS (Hanhong Chemical-BH-GN0100619-22 1101) aqueous solution, and the vehicle of the vehicle control group was a mixture of the vehicle of olaparib and the vehicle of the sodium salt of compound I (mixed at a volume ratio of 1:1). Mice had free access to food and water throughout the experiment.
Tumor diameters were measured twice weekly using a vernier caliper. The tumor volume (V) was calculated using the following formula: V = 0.5a × b^2, wherein a and b represent the long diameter and short diameter of the tumor, respectively.
Mouse body weight was measured twice weekly.
Two way ANOVA was used to compare the differences in tumor growth trend among groups, and a significant difference was considered when p < 0.05.

[2] = combination with AZD5305 (PARP inhibitor)
[3] = combination with Niraparib (PARP inhibitor)
[4] = combination with Olaparib (PARP inhibitor)
[5] = combination with Talazoparib (PARP inhibitor)

SMILES: COc1ccc(Cl)cc1-c1cc(C)ncc1C(=O)Nc1nc2ncc(-c3ccc(C#N)cc3)nc2s1.[Na] [Sodium salt of compound I, Sodium Salt of 4-(5-Chloro-2-methoxyphenyl)-N-[6-(4-cyanophenyl)thiazolo[4,5-b]pyrazin-2-yl]-6-methylnicotinamide]
- Combined effect (KURAMOCHI; combination with Doxorubicin hydrochloride (Topoisomerase II inhibitor)): Synergistic
- Combined effect (KURAMOCHI; combination with Paclitaxel (Tubulin inhibitor)): Synergistic
- Combined effect (NCI-H82): Synergistic
- Combined effect (A549; combination with Cisplatin (Platinum derivative)): Synergistic
- Combined effect (A549; combination with Etoposide (Topoisomerase II inhibitor)): Synergistic
- Combined effect (DLD-1 BRCA2 (-/-); [2]): Synergistic
- Combined effect (DLD-1 BRCA2 (-/-); [3]): Synergistic
- Combined effect (DLD1): Synergistic
- Combined effect (MDA-MB-436; [2]): Synergistic
- Combined effect (MDA-MB-436; combination with AZD7648 (DNA-PK inhibitor)): Synergistic
- Combined effect (MDA-MB-436; [3]): Synergistic
- Combined effect (MDA-MB-436; [4]): Synergistic
- Combined effect (NCIH23; combination with RP3500 (ATR inhibitor)): Synergistic
- Combined effect (NCIH23; [5]): Synergistic
- Combined effect (OVCAR3; combination with Carboplatin (Platinum derivative)): Synergistic
- Combined effect (OVCAR3; [3]): Synergistic
- Combined effect (OVCAR3; [4]): Synergistic
- Combined effect (OVCAR3; [5]): Synergistic
- anti-tumor effect of combination with olaparib [1]: synergistic anti-tumor effect
- tumor volume ([1]; versus either single drug group): significantly lower
- safety ([1]; condition of mice, body weight): good safety
